{"source": "patent US20250367233A1", "about": "“NOVEL PHARMACEUTICAL COMPOSITION CONTAINING IRON AND MEGLUMINE” (priority 2024, published 2025)", "test": "Solubility of ferric meglumine / meglumine in solvents", "data": [{"molecule": "CNC[C@H](O)[C@@H](O)[C@H](O)[C@H](O)CO", "note": "[Meglumine, N-Methyl-D-glucamine]", "values": [{"measurement": "solubility in water", "value": "soluble"}]}]}
